Values quoted from earlier work in patent US12324861B2, “Beaded nonwoven membrane as a drug delivery system” (CEBIOTEX, S.L., priority 2018, dated 2025).

How the values were obtained:
[1] = systemic administration in patients
[2] = nude mice

- conversion into the active derivative (SN-38) [1]: less than 10%
- conversion to SN-38 [2]: > 70%
Structure (SMILES): CCc1c2c(nc3ccc(OC(=O)N4CCC(N5CCCCC5)CC4)cc13)-c1cc3c(c(=O)n1C2)COC(=O)[C@]3(O)CC [Irinotecan]
